Results on six compounds are retold here after patent US12410171B2, “Tropomyosin receptor kinase (TRK) degradation compounds and methods of use” (Cullgen (Shanghai), Inc., priority 2020, dated 2025).

One series has as its target T1, TPM3-TRKA fusion protein (Homo sapiens, UniProt P04629).
T1 construct: The resulted chimeric proteins always retain the kinase domain of TRK proteins; TPM3 (fusion partner, N-terminal part of tropomyosin alpha-3, P06753); endogenous in cells; host or cells: KM12 colon cancer cells; the other entry of the earlier key: TPM3 (P06753, Tropomyosin alpha-3 chain)
Nature of the series: TPM3-TRKA fusion protein levels in KM12 cells (Western blot). The note with it: for percent degradation of TPM3-TRKA protein at 0.01 µM: 16 h, TPM3-TRKA degradation in KM12 cells at 10 nM compound, category of percentage degradation, read-out: Degradation (at 10 nM). The format is cell-based. In a few lines: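 TPM3-TRKA levels were assessed by Western blot with chemiluminescent detection and band densitometry, after SDS-PAGE of BCA-normalized RIPA lysates. Before lysis, KM12 cells received DMSO, compounds or matched control compounds at concentrations including 0.1, 1, 10 and 100 nM and 0.4–30 nM. Exposures lasted 4 h, 8–16 h or 16 h.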
On the technique in general: In western blotting, separated proteins are transferred to a membrane and probed.

In another series the target is T2, wildtype TRKA protein (Homo sapiens, UniProt P04629).
T2 construct: wildtype TRKA protein expressed by HEL cells; endogenous in cells; host or cells: HEL erythroleukemia cells
As to the kind of experiment: Wildtype TRKA protein levels in HEL erythroleukemia cells (Western blot). The series is classed as cell-based. The protocol: KM12 or HEL cells were treated with a dose range of compound TR-123 or TR-123-negative. The latter lost binding to cereblon (CRBN) due to a chemical modification.
KM12 or HEL cells were treated with a single dose of compound TR-123 or combination with MG-132, Bortezomib, MLN4924 or Pomalidomide.
HEL cells were treated with heterobifunctional compounds at 10 nM or 100 nM for 16 hours.
KM12, H358, HEL, SU-DHL-1 and other cells were cultured at 37° C. with 5% CO2 in RPMI 1640 Medium supplemented with 10% fetal bovine serum. Cells were authenticated using the short tandem repeat (STR) assays. Mycoplasma test results were negative. Stable cell lines were established by lentivirus transduction, selected and maintained in medium containing 1 μg/mL puromycin (Beyotime Biotechnology).
Cultured cells were washed with cold PBS once and lysed in cold RIPA buffer supplemented with protease inhibitors and phosphatase inhibitors (Beyotime Biotechnology). The solutions were then incubated at 4° C. for 30 minutes with gentle agitation to fully lyse cells. For tumor tissues, tumors were cut into small pieces, milled with cold RIPA buffer using a mechanical homogenizer and lysed for 1 hour at 4° C. Cell lysates were centrifuged at 13,000 rpm for 10 minutes at 4° C. and pellets were discarded. Total protein concentrations in the lysates were determined by BCA assays (Beyotime Biotechnology). Cell lysates were mixed with Laemmli loading buffer to 1× and heated at 99° C. for 5 min. Proteins were resolved on SDS-PAGE and visualized by chemiluminescence. Images were taken by a ChemiDoc MP Imaging system (Bio-Rad). Protein bands were quantitated using the software provided by Bio-Rad.

Series [1] is described as follows: Mouse pharmacokinetic (PK) studies, plasma concentrations. To be noted: for bioavailability: mouse, plasma, oral, male ICR mice, single dose 10 mg/kg orally or 1 mg/kg intravenously (FIG. 23A). The series is classed as in vivo, mice. As for the experimental part:
A single […] intraperitoneal injection of compound TR-123 was evaluated. Plasma concentrations of TR-123 reported at each of the 6 time points (30 min, 1 h, […], 4 h, 8 h, and 12 h post compound administration) are the average values from 3 test animals.
A single 2 mg/kg intravenous injection and 20 mg/kg oral gavage of TR-198 were evaluated in mice. Plasma concentrations of TR-198 reported at each of the 6 time points (5 min, 30 min, 2 h, 4 h, 8 h, and 12 h post compound administration via IV, 30 min, 1 h, 2 h, 4 h, 8 h, and 12 h post compound administration via p.o.) are the average values from 3 test animals.
Plasma concentrations of TR-231 and TR-275 were determined following a single dose of 10 mg/kg orally or 1 mg/kg intravenously in male ICR mice (FIG. 23A). Plasma concentrations of TR-231 or TR-275 are examined at indicated different time points post compound administration. The reported values are the average values from 3 test animals.
Standard PK studies were conducted using male Swiss Albino mice by Sai Life Sciences or using male ICR mice by Cullgen. Plasma exposures of TR-123 (10 mg/kg, intraperitoneal injection), TR-198 (20 mg/kg, oral gavage, or 2 mg/kg, intravenous injection), TR-231 and TR-275 (10 mg/kg, oral gavage, or 1 mg/kg, intravenous injection) were determined. Plasma concentrations were reported at indicated time points as the average values derived from three experimental animals. Error bars represent standard deviations.

In the next series the test system is KM12 cells. Nature of the series: KM12 cell viability (CellTiter-Glo). The series is classed as cell-based. The note with it: Homo sapiens, 72 h; KM12 cell viability, CellTiter-Glo, three days treatment; read-out: IC50. The method, boiled down:
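Three-day exposure of KM12 cells (5000/well, RPMI 1640 with 10% FBS, 37 °C, 5% CO2) to compound dilution series, 3-fold over 8 or 11 points (top 1000 nM in the 8-point format) or 2-fold over 12. CellTiter-Glo readout, with IC50 fitted by nonlinear least-squares regression.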

For series [2], the system named is KM12 subcutaneous xenograft tumors. Nature of the series: KM12 subcutaneous xenograft tumor growth. The series is classed as in vivo, Athymic nude mice. To be noted: 10-20 mg/kg qd or bid via oral gavage (FIG. 15A-15B). As for the experimental part:
Athymic nude mice bearing KM12 subcutaneous xenograft tumors at the right flank were intraperitoneally treated with vehicle or 25 mg/kg CPD-060 once per day (qd), twice per day (bid), or once every two days (q2d). Tumor volumes were assessed every two days and expressed as length×width×width/2. Body weights of experimental mice were also measured to assess the toxicity of compounds.
Athymic nude mice bearing KM12 subcutaneous xenograft tumors at the right flank were treated with vehicle, 10-20 mg/kg TR-181 or TR-198 once per day (qd), or twice per day (bid) via oral gavage. Tumor volumes were assessed every two days and expressed as length×width×width/2. Body weights of experimental mice were also measured to assess the toxicity of compounds.
Mice bearing KM12 xenograft tumors were treated with vehicle, TR-231 or TR-275 orally at 40 mg/kg, twice per day for 14 days. Tumor sizes were measured every two days and presented as volume=(length×width×width)/2. […]
All animal experiments were performed under protocols approved by the Institutional Animal Care and Use Committee (IACUC) of Cullgen. […] Tumor volumes were calculated as […]. For tumor growth assays, tumor sizes and body weight of mice were measured every 2 days. For pharmacodynamic studies, the levels of TPM3-TPKA in xenograft tumors was determined following a single dose of drug administration. […]

A further series has as its system TRK-fusions. The note with it: phase 2 results, cited from earlier work.

T1 sequence (P04629 with tags, fused parts or gaps): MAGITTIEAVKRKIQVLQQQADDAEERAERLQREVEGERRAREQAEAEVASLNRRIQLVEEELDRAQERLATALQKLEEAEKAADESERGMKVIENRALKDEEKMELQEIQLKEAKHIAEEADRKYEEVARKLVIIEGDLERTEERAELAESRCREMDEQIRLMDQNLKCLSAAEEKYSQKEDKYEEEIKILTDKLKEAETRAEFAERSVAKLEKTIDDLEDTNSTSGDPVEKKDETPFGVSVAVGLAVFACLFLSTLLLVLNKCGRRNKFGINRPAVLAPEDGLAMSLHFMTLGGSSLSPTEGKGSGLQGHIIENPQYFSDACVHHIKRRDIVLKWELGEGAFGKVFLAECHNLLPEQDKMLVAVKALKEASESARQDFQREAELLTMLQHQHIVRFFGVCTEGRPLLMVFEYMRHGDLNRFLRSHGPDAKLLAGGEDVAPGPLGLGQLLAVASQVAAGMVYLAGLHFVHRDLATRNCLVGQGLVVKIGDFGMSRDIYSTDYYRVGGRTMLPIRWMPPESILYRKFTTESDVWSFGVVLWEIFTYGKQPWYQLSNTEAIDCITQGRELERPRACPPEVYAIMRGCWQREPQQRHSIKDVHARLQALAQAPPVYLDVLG
T2 sequence (P04629 33-796): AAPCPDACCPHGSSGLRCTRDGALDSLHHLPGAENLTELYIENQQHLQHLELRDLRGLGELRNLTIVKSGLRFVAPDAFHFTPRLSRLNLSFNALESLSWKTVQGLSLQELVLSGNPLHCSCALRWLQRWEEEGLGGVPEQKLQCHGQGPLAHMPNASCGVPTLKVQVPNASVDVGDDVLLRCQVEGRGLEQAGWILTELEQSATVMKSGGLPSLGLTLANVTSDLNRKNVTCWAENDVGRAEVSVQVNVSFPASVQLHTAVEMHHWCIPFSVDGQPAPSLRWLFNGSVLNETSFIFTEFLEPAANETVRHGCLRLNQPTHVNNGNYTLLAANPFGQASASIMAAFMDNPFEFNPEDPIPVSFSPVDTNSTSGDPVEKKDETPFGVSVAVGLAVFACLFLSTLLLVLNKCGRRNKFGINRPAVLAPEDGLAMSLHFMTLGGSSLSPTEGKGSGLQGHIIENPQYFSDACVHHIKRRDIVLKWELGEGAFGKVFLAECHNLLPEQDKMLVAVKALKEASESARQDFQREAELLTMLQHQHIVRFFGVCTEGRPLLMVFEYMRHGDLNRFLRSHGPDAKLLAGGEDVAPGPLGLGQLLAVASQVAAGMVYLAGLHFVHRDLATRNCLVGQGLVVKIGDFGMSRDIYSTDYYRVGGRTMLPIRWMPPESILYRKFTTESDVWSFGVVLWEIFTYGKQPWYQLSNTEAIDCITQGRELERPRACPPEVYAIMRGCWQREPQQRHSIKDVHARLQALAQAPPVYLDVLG

With `O=C1CCC(N2C(=O)c3ccc(NCC(=O)N4CCN(c5cccc(-c6cnc7ccc(N8CCC[C@@H]8c8cccc(F)c8)nn67)n5)CC4)cc3C2=O)C(=O)N1` (stereo partly drawn) [TR-123, 2-(2,6-dioxopiperidin-3-yl)-5-((2-(4-(6-(6-((R)-2-(3-fluorophenyl)pyrrolidin-1-yl)imidazo[1,2-b]pyridazin-3-yl)pyridin-2-yl)piperazin-1-yl)-2-oxoethyl)amino) isoindoline-1,3-dione], the percent degradation of TPM3-TRKA protein at 0.01 µM on TPM3-TRKA fusion protein was more than 80%. The TRKA protein levels entry at TPM3-TRKA fusion protein (KM12 cells, dose range (FIG. 8)) is “reduced TRKA protein levels in a concentration-dependent manner”; at wildtype TRKA protein (dose range (FIG. 8)), “reduced TRKA protein levels in a concentration-dependent manner”. Besides, the “TRKA degradation in combination with MG-132, Bortezomib, MLN4924 or Pomalidomide” value at TPM3-TRKA fusion protein (KM12 cells, single dose (FIG. 9)) is on record as “compromised”; at wildtype TRKA protein (single dose (FIG. 9)) it was “compromised”. Further, the plasma exposure entry in series [1] (single 20 mg/kg intraperitoneal injection, over 12 hours, average of 3 animals (FIG. 11)) is “good plasma exposure”.
Usually IC50 stands for the concentration at which inhibition is half-maximal. On to `O=C1CCC(N2C(=O)c3ccc(NCCN4CCN(c5cccc(-c6cnc7ccc(N8CCC[C@@H]8c8cccc(F)c8)nn67)n5)CC4)cc3C2=O)C(=O)N1` (stereo partly drawn) [TR-181, 2-(2,6-dioxopiperidin-3-yl)-5-((2-(4-(6-(6-((R)-2˜ (3-fluorophenyl)pyrrolidin-1-yl)imidazo[1,2-b]pyridazin-3-yl)pyridin-2-yl)piperazin-1-yl)ethyl)amino) isoindoline-1,3-dione], for which the concentration for half-maximal inhibition (IC50) in the series with KM12 cells is 2.9 nM. Besides, the percent degradation of TPM3-TRKA protein at 0.01 µM on TPM3-TRKA fusion protein is more than 80%. Moreover, the “in vivo anti-tumor activity (tumor volume)” value in series [2] is reported as “significant in vivo anti-tumor activity”.
`O=C1CCC(N2C(=O)c3ccc(N4CC(CN5CCN(c6cccc(-c7cnc8ccc(N9CCC[C@@H]9c9cccc(F)c9)nn78)n6)CC5)C4)cc3C2=O)C(=O)N1` (stereo partly drawn) [TR-198, 2-(2,6-dioxopiperidin-3-yl)-5-(3-((4-(6-(6-((R)-2-(3-fluorophenyl)pyrrolidin-1-yl)imidazo[1,2-b]pyridazin-3-yl)pyridin-2-yl)piperazin-1-yl)methyl)azetidin-1-yl)isoindoline-1,3-dione]: the percent degradation of TPM3-TRKA protein at 0.01 µM at TPM3-TRKA fusion protein is more than 80%. Further, in series [2], the “in vivo anti-tumor activity (tumor volume)” value is “significant in vivo anti-tumor activity”.
Broadly, the bioavailability is the share of a dose that reaches the circulation, judged against a reference dose that is usually intravenous. Read a low bioavailability as little systemic uptake. For `O=C1CCC(N2C(=O)c3ccc(N4CC(CN5CCN(c6ccc(C(=O)Nc7n[nH]c8ccc(Cc9cc(F)cc(F)c9)cc78)c(NC7CCOCC7)c6)CC5)C4)cc3C2=O)C(=O)N1` (stereo not shown) [TR-231], in the series on KM12 cells, the 50% inhibitory concentration (IC50) came out at 3 nM. Besides, on TPM3-TRKA fusion protein, the percent degradation of TPM3-TRKA protein at 0.01 µM was more than 80%. Also, in series [1], the bioavailability was approximately 48%.
For `O=C1CCC(N2C(=O)c3ccc(N4CC(N5CCN(c6ccc(C(=O)Nc7n[nH]c8ccc(Cc9cc(F)cc(F)c9)cc78)c(NC7CCOCC7)c6)CC5)C4)cc3C2=O)C(=O)N1` (stereo not shown) [TR-275, N-(5-(3,5-difluorobenzyl)-1H-indazol-3-yl)-4-(4-(1-(2-(2,6-dioxopiperidin-3-yl)-1,3-dioxoisoindolin-5-yl)azetidin-3-yl)piperazin-1-yl)-2-((tetrahydro-2H-pyran-4-yl)amino)benzamide], in that order: 8.9 nM, 50 to 80% and approximately 27%.
For the compound `O=C(Nc1cnn2ccc(N3CCC[C@@H]3c3cc(F)ccc3F)nc12)N1CC[C@H](O)C1` [larotrectinib], the “patient remained progression-free at 1 year” value with TRK-fusions (at 1 year) is given as 55%. In addition, in the series on TRK-fusions (patients with TRK-fusions), the “patients responded to the therapy” value is 75%.
